According to patent US20220133697A1, “INJECTABLE FORMULATIONS” (Aldeyra Therapeutics, Inc., priority 2018, published 2022):

Legend:
MDA adducts = MDA adducts in the LPS-induced uveitis model; format: in vivo, female Lewis rats; settings: after TO and IVT administration; data not shown
Method: An in vivo study was conducted to assess the efficacy of intravitreal administration of Compound I-5 and I-22 in a rat model of endotoxin induced uveitis, one of the most appropriate models for the study of non-infectious uveitis (NIU) (Smith et al., 1998, Immunol Cell Biol. 76(6):497-512) (Toxikon Study 16-04078-N1). Ocular inflammation was induced in female Lewis rats (n=10/group) by a single, foot pad injection of lipopolysaccharide (LPS) (100 μL) (Herbort et al., 1988, Graefes Arch Clin Exp Ophthalmol. 226(6):553-8). […] Anterior segments were scored using a combined Draize and McDonald-Shattuck scoring system, and posterior segments were scored using 0 to 1 (vitreous, optic disc, retinal vasculature) and 0 to 4 (retinal and choroidal hemorrhage, exudation, and detachment) scales. Statistical significance from vehicle control was determined by ANOVA, followed by Tukey's post hoc test. […] Retinal exams were performed prior to study start and six and 24 hours following LPS administration and scored using a Combined Draize and McDonald Shadduck scoring system, based on assessments of: (a) Retinal vasculopathy; (2) Retinal hemorrhage, exudate or detachment; and (3) Retinal hemorrhage, exudate or detachment.

[1] = body weight and adverse effects during 56 days daily treatment in the abcr-/- mouse study; format: in vivo, mice; settings: daily treatment for 56 days
Method: (§1) A mouse knockout model (abcr−/−) of macular degeneration (MD) was used to test the activities of Compound I-5 and Compound I-22. The retinal transport protein, ABCA4, is not expressed in these mice, allowing retinaldehdye to escape the light cycle and form a toxic metabolite with phosphatidylethanolamine, N-retinylidene-phosphatidylethanolamine (A2E). Mice were treated intraperitoneally (IP) for 56 days with 10 mg/kg Compound I-5 (n=24), Compound I-22 (n=24), or vehicle (n=22), starting at week 10 to 12 of life. An untreated control group (n=12) was sacrificed on the first day of dosing. After treatment, A2E concentrations in retinas were measured by HPLC. Statistical significance from vehicle control was determined by t-test.

A2E = A2E formation in retinas of abcr-/- mouse knockout model of macular degeneration; format: in vivo, mice; settings: 10 mg/kg intraperitoneally daily for 56 days, HPLC, compared with vehicle controls
Method: as §1

diabetic macular edema = assay: rat model of diabetic macular edema (STZ-induced diabetes), retinal histology scores; format: in vivo
Method: To assess the effect of Compound I-22 in a rat model of diabetic macular edema (DME), Type 1 diabetes was induced in male brown Norway rats by intraperitoneal administration of streptozotocin (STZ; 55 mg/kg). Forty days after STZ administration, animals were tested for diabetes by testing blood glucose levels.
Animals with diabetes were assigned to groups of ten, to receive either vehicle (HPβCD) or Compound I-22. […] On Day 41 (about Week 6) after STZ induction, animals received a single intravitreal injection of Compound I-22 (3.5 μL; 17.5 μg) or vehicle per eye. On Day 57 (about Week 8) after STZ induction, animals received a second intravitreal injection of Compound I-22 or vehicle.
On Day 70 (about Week 10) after STZ induction, animals were euthanized and retinas were processed for histological examination. Sections (3 to 5 μm) were stained with hematoxylin and eosin and evaluated by light microscopy. Changes in retinal thickness were scored on a 0 to 4 scale, with 0 meaning no changes, 1 meaning minimal changes, 2 meaning mild changes, 3 meaning moderate changes, and 4 meaning severe changes, relative to non-diabetic controls. Six microscopic sections were examined for each eye, and retinas were also assessed and scored by a pathologist for changes in vascularity and neutrophil infiltration.

[2] = test system: endotoxin induced uveitis; assay: rat model of endotoxin induced uveitis, ocular exam scores; format: in vivo, female Lewis rats; settings: for retina-choroid scores, within-subject statistical analysis (treatment and time): IVT treatment, compared to vehicle control
Method: An in vivo study was conducted to assess the efficacy of intravitreal administration of Compound I-5 and I-22 in a rat model of endotoxin induced uveitis, one of the most appropriate models for the study of non-infectious uveitis (NIU) (Smith et al., 1998, Immunol Cell Biol. 76(6):497-512) (Toxikon Study 16-04078-N1). Ocular inflammation was induced in female Lewis rats (n=10/group) by a single, foot pad injection of lipopolysaccharide (LPS) (100 μL) (Herbort et al., 1988, Graefes Arch Clin Exp Ophthalmol. 226(6):553-8). Compound I-5 or I-22 (50 μg) was topically administered (TO) to the eye at hours 1, 3, 7, 10, and 17, after LPS induction, or by a single intravitreal (IVT) injection (25 μg) 1 hour after LPS induction (n=10 per group). Ocular exams were performed six and 24 hours after LPS injection. Anterior segments were scored using a combined Draize and McDonald-Shattuck scoring system, and posterior segments were scored using 0 to 1 (vitreous, optic disc, retinal vasculature) and 0 to 4 (retinal and choroidal hemorrhage, exudation, and detachment) scales. Statistical significance from vehicle control was determined by ANOVA, followed by Tukey's post hoc test. The test compound, e.g., Compound I-22 (5 mg/mL), was administered intravitreally into each eye (25 μg/eye) within one hour of LPS administration. Balanced salt solution (BSS) served as a vehicle control. Retinal exams were performed prior to study start and six and 24 hours following LPS administration and scored using a Combined Draize and McDonald Shadduck scoring system, based on assessments of: (a) Retinal vasculopathy; (2) Retinal hemorrhage, exudate or detachment; and (3) Retinal hemorrhage, exudate or detachment.

[3] = dark adaptation, separate study; format: in vivo; settings: systemic (IP) doses 5-fold greater than the effective dose in the A2E study, 56 days; data not shown
[4] = single intravitreal (IVT) injection 25 μg 1 hour after LPS, vs. vehicle
[5] = topical (TO) 50 μg at hours 1, 3, 7, 10, 17 after LPS, at 6 hours and 24 hours, compared to vehicle

Row | Compound | MDA adducts (MDA adducts) | drug-related adverse effects [1] | effect on body weight [1] | decrease in formation of A2E (A2E) [%] | reduction in retinal vascularity compared to vehicle, statistical significance (diabetic macular edema; intravitreal 17.5 μg per eye on Day 41 and Day 57 after STZ, FIG. 10) | neutrophil infiltration (score 0 to 4) (diabetic macular edema; intravitreal 17.5 μg per eye on Day 41 and Day 57 after STZ, compared to vehicle, p<0.01) | decrease in retinal vascularity score (diabetic macular edema; intravitreal 17.5 μg per eye on Day 41 and Day 57 after STZ, compared to vehicle, p<0.05) [%] | retinal thickness (score 0 to 4) (diabetic macular edema; intravitreal 17.5 μg per eye on Day 41 and Day 57 after STZ, histology Day 70, p<0.01) | tolerability in the retina (diabetic macular edema; intravitreal injection, rat DME model) | retinal inflammation (diabetic macular edema; measured by retinal thickness, neutrophil infiltration and retinal vascular changes) | retina-choroid scores, within-subject statistical analysis (treatment and time) [2] | ocular exam scores (total ocular, anterior chamber and retina-choroid inflammation) [2, 4] | ocular exam scores (total ocular, anterior chamber and retina-choroid inflammation) [2, 5] | effect on dark adaptation [3]
1 | CC(C)(O)c1cc2oc(-c3ccccc3)nc2cc1N [Compound I-22] | Small, although not significant, reductions | nor were any drug-related adverse effects observed | no effect | 69 | not statistically significant | significant reduction | 36 | significant reduction | well tolerated | decreased | significantly improved | significantly improved | significantly improved | –
2 | CC(C)(O)c1nc2ccc(Cl)cc2cc1N [Compound I-5] | Small, although not significant, reductions | nor were any drug-related adverse effects observed | no effect | 71 | – | – | – | – | – | – | significantly improved | significantly improved | significantly improved | no effect
